Data reported in patent US12435066B2, “Substituted tricyclic compounds” (LUPIN LIMITED, priority 2019, dated 2025).

Key:
[1] = test system: pERK in DLD1 cells; assay: ERK phosphorylation assay after EGF stimulation; format: cell-based; settings: Homo sapiens, DLD-1, compound 2 h, 200 ng/ml hEGF 5 minutes, alphascreen pERK, read-out: ERK phosphorylation inhibition IC50
Procedure: Example-128: ERK Phosphorylation Assay Protocol
Compounds were tested for their ability to inhibit pERK after EGF stimulation in DLD1 cells. Cells were seeded at 0.2 million cells per well in 96 well cell binding tissue culture plate in 100 μL complete media and were allowed to settle overnight (16 to 20 h). On the following day, cells were treated with various concentrations of test compounds for 2 h followed by stimulation with 200 ng/ml hEGF (diluted in PBS) for 5 minutes. Cells were then washed once with PBS and lysed in freshly prepared lysis buffer (provided with alphascreen surefire ERK1/2 p-T202/Y204 assay kit, cat no: TGRESB10K, Perkin Elmer). Lysis was carried out in plate shaker for 10-15 mins. Lysate was transferred to […] white opti-plate (Perkin Elmer) and alphascreen for pERK was carried out as per manufacturer's instructions. Plate was read after 2 h incubation in plate shaker at […] 300 RPM, 25-28° C.

[2] = molecular target: T1, hSOS1 and hKRASG12C (Homo sapiens, UniProt Q07889); assay: biochemical
T1 sequence (Q07889 564-1049): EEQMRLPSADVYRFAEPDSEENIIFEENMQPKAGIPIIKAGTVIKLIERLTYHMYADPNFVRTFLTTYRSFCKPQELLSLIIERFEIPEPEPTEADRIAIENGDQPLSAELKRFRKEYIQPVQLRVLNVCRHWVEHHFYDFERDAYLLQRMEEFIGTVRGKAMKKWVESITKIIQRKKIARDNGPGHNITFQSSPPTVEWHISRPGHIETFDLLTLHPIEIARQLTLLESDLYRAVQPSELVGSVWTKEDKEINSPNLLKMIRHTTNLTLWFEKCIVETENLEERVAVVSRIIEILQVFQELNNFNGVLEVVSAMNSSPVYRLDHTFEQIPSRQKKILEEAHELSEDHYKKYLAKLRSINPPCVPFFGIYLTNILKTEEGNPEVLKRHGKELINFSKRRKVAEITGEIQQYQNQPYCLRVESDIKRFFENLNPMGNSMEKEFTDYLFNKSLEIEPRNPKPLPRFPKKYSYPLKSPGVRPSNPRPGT
Procedure: Interaction assay was conducted to evaluate the ability of the compounds to disrupt the protein-protein interactions between hSOS1 and hKRASG12C. Inhibitory effect of compounds on GST-hSOS1, 564-1049aa expressed and purified in-house and HIS-hKRASG12C (R06-32DH, SignalChem) interaction was assessed using HTRF detection technology in biochemical assay. Compounds were pre-incubated with 10-50 nM working solution of hSOS1 per well of a 384 well plate (Perkin Elmer, Cat #6007290) for 10 min at 20° C. in the assay buffer containing 5 mM HEPES, pH 7.4, 150 mM NaCl, 10 mM EDTA, 1 mM DTT, 0.05% BSA fraction V and 0.0025% Igepal. Reaction was initiated by adding 100-300 nM working solution of hKRASG12C in assay buffer. Total assay volume was 15 μL. Reaction was continued for 30-60 min at 20° C. Then detection solution containing MAb Anti-GST-d2 (#61GSTDLA, Cisbio BioAssays) and MAb Anti-HIS-Tb (#61HISTLA, Cisbio BioAssays), all prepared in HTRF detection buffer (#61DB10RDF, Cisbio BioAssays) was added and further incubated for 30-60 min at 20° C. HTRF signal was recorded in PHERAStar microplate reader. Ratio of signal obtained at 665 nm and 620 nm was used to compute the percent inhibition of compound utilizing the following formula:
Positive control=hSOS1+hKRASG12C+MAb Anti-GST-d2+Mab Anti-HIS-Tb Negative control=hKRASG12C+MAb Anti-GST-d2+MAb Anti-HIS-Tb

[3] = molecular target: T2, hSOS1 mediated nucleotide exchange on hKRASG12C (Homo sapiens, UniProt Q07889); assay: biochemical
T2 sequence (Q07889 564-1049): T1 sequence (Q07889 564-1049)

| SMILES | IC50 [1] | IC50 [2] | IC50 [3] |
| --- | --- | --- | --- |
| Cc1nc(N[C@H](C)c2cc(N)cc(C(F)(F)F)c2)c2cc(N3CCOCC3)c3c(c2n1)CC(C)O3 (mixture of isomers) [Compound 117a, (R/S)—N—((R)-1-(3-amino-5-(trifluoromethyl)phenyl)ethyl)-2,8-dimethyl-6-morpholino-8,9-dihydrofuro[2,3-h]quinazolin-4-amine] | 1 to 200 nM | 1 to 10 nM | 31 to 70 nM |
| Cc1nc(NC(C)c2cc(N)cc(C(F)F)c2)c2cc(N3CC4(COC4)C3)c3c(c2n1)CCC3 (racemic) [Compound 78, (R/S)—N-(1-(3-amino-5-(difluoromethyl)phenyl)ethyl)-2-methyl-6-(2-oxa-6-azaspiro[3.3]heptan-6-yl)-8,9-dihydro-7H-cyclopenta[h]quinazolin-4-amine] | 1 to 200 nM | 1 to 10 nM | 1 to 30 nM |
| Cc1nc(N[C@H](C)c2cccc(C(F)(F)[C@@](C)(O)CO)c2F)c2cc(N3CCOCC3)c3c(c2n1)CCC3 (racemic) [Compound 82b, (S/R)-3,3-difluoro-3-(2-fluoro-3-((S/R)-1-((2-methyl-6-morpholino-8,9-dihydro-7H-cyclopenta[h]quinazolin-4-yl)amino)ethyl)phenyl)-2-methylpropane-1,2-diol] | 1 to 200 nM | 1 to 10 nM | 1 to 30 nM |
| Cc1cc(N)cc(C(C)Nc2nc(C)nc3c4c(c(N5CC6(COC6)C5)cc23)CCC4)c1 (single isomer, unassigned) [Compound 20, N-(1-(3-amino-5-methylphenyl)ethyl)-2-methyl-6-(2-oxa-6-azaspiro[3.3]heptan-6-yl)-8,9-dihydro-7H-cyclopenta[h]quinazolin-4-amine] | 201 to 500 nM | 1 to 10 nM |  |
| Cc1nc(N[C@H](C)c2cc(N)cc(C(F)(F)F)c2)c2cc(N3CCC(C)(O)C3)c3c(c2n1)CCC3 (single isomer, unassigned) [Compound 55a] | 1 to 200 nM | 11 to 20 nM | 31 to 70 nM |
| Cc1nc(N[C@H](C)c2cc(N)cc(C(F)(F)F)c2)c2cc(N3CC[C@](C)(O)C3)c3c(c2n1)CCC3 (single isomer, unassigned) [Compound 55b] | 1 to 200 nM | 11 to 20 nM | 71 to 130 nM |
| Cc1nc(N[C@H](C)c2cccc(C(F)(F)C(C)(C)O)c2F)c2cc(N3CC[C@@](C)(O)C3)c3c(c2n1)CCC3 (single isomer, unassigned) [Compound 61a] | 1 to 200 nM | 1 to 10 nM | 1 to 30 nM |
| COCC1(O)CCN(c2cc3c(N[C@H](C)c4cccc(C(F)(F)C(C)O)c4F)nc(C)nc3c3c2CCC3)CC1 (single isomer, unassigned) [Compound 72a] | 1 to 200 nM | 1 to 10 nM | 1 to 30 nM |
| COCC1(O)CCN(c2cc3c(N[C@H](C)c4cccc(C(F)(F)[C@@H](C)O)c4F)nc(C)nc3c3c2CCC3)CC1 (single isomer, unassigned) [Compound 72b] | 1 to 200 nM | 1 to 10 nM | 1 to 30 nM |
| Cc1nc(N[C@H](C)c2cccc(C(F)(F)C(C)O)c2F)c2cc(N3CC4(COC4)C3)c3c(c2n1)CCC3 (single isomer, unassigned) [Compound 73a] | 1 to 200 nM | 1 to 10 nM | 1 to 30 nM |
| Cc1nc(NC(C)c2cc(N)cc(C(F)F)c2)c2cc(N3CCOCC3)c3c(c2n1)CCC3 (single isomer, unassigned) [Compound 77, (R/S)—N-(1-(3-amino-5-(difluoromethyl)phenyl)ethyl)-2-methyl-6-morpholino-8,9-dihydro-7H-cyclopenta[h]quinazolin-4-amine] | 1 to 200 nM | 1 to 10 nM |  |
| Cc1nc(N[C@H](C)c2cc(N)cc(C(F)(F)F)c2)c2cc(N3CCOCC3)c3c(c2n1)CC(C)O3 (single isomer, unassigned) [Compound 117b] | 1 to 200 nM | 11 to 20 nM |  |
| COC1CCN(c2cc3c(N[C@H](C)c4cc(N)cc(C(F)(F)F)c4)nc(C)nc3c3c2CCC3)CC1 [Compound 1, (R)—N-(1-(3-amino-5-(trifluoromethyl)phenyl)ethyl)-6-(4-methoxypiperidin-1-yl)-2-methyl-8,9-dihydro-7H-cyclopenta[h]quinazolin-4-amine] | 1 to 200 nM | 11 to 20 nM |  |
| Cc1nc(N[C@H](C)c2cc(N)cc(C(F)(F)F)c2)c2cc(N3C[C@@H](C)O[C@@H](C)C3)c3c(c2n1)CCC3 [Compound 17, N—((R)-1-(3-amino-5-(trifluoromethyl)phenyl)ethyl)-6-((2S,6R)-2,6-dimethylmorpholino)-2-methyl-8,9-dihydro-7H-cyclopenta[h]quinazolin-4-amine] |  | 11 to 20 nM |  |
| Cc1nc(N[C@H](C)c2cc(N)cc(C(F)(F)F)c2)c2cc(N[C@H]3CCOC3)c3c(c2n1)CCC3 [Compound 19, N^4—((R)-1-(3-amino-5-(trifluoromethyl)phenyl)ethyl)-2-methyl-N^6—((S)-tetrahydrofuran-3-yl)-8,9-dihydro-7H-cyclopenta[h]quinazoline-4,6-diamine] | 1 to 200 nM | 1 to 10 nM |  |
| Cc1nc(N[C@H](C)c2cc(N)cc(C(F)(F)F)c2)c2cc(NC3CCOCC3)c3c(c2n1)CCC3 [Compound 21, (R)—N^4-(1-(3-amino-5-(trifluoromethyl)phenyl)ethyl)-2-methyl-N^6-(tetrahydro-2H-pyran-4-yl)-8,9-dihydro-7H-cyclopenta[h]quinazoline-4,6-diamine] | 201 to 500 nM | 11 to 20 nM |  |
| COC[C@H]1CN(c2cc3c(N[C@H](C)c4cc(N)cc(C(F)(F)F)c4)nc(C)nc3c3c2CCC3)CCO1 [Compound 27, N—((R)-1-(3-amino-5-(trifluoromethyl)phenyl)ethyl)-6-((R)-2-(methoxymethyl)morpholino)-2-methyl-8,9-dihydro-7H-cyclopenta[h]quinazolin-4-amine] | 1 to 200 nM | 1 to 10 nM |  |
| Cc1nc(N[C@H](C)c2cc(N)cc(C(F)(F)F)c2)c2cc(NC3COC3)c3c(c2n1)CCC3 [Compound 28, (R)—N^4-(1-(3-amino-5-(trifluoromethyl)phenyl)ethyl)-2-methyl-N^6-(oxetan-3-yl)-8,9-dihydro-7H-cyclopenta[h]quinazoline-4,6-diamine] |  | 1 to 10 nM | 31 to 70 nM |
| Cc1nc(N[C@H](C)c2cc(N)cc(C(F)(F)F)c2)c2cc(N3CC[C@@H](O)C3)c3c(c2n1)CCC3 [Compound 44, (R)-1-(4-(((R)-1-(3-amino-5-(trifluoromethyl)phenyl)ethyl)amino)-2-methyl-8,9-dihydro-7H-cyclopenta[h]quinazolin-6-yl)pyrrolidin-3-ol] | 1 to 200 nM | 11 to 20 nM |  |
| Cc1nc(N[C@H](C)c2cc(N)cc(C(F)(F)F)c2)c2cc(N3CCN(C)CC3)c3c(c2n1)CCC3 [Compound 46, (R)—N-(1-(3-amino-5-(trifluoromethyl)phenyl)ethyl)-2-methyl-6-(4-methylpiperazin-1-yl)-8,9-dihydro-7H-cyclopenta[h]quinazolin-4-amine] |  | 1 to 10 nM |  |
| Cc1nc(N[C@H](C)c2cc(N)cc(C(F)(F)F)c2)c2cc(C3CCN(C)CC3)c3c(c2n1)CCC3 [Compound 101, (R)—N-(1-(3-amino-5-(trifluoromethyl)phenyl)ethyl)-2-methyl-6-(1-methylpiperidin-4-yl)-8,9-dihydro-7H-cyclopenta[h]quinazolin-4-amine] | 1 to 200 nM | 1 to 10 nM |  |
| COc1cc2c(N[C@H](C)c3cc(N)cc(C(F)(F)F)c3)nc(C)nc2c2c1CCC2 [Compound 108, (R)—N-(1-(3-amino-5-(trifluoromethyl)phenyl)ethyl)-6-methoxy-2-methyl-8,9-dihydro-7H-cyclopenta[h]quinazolin-4-amine] |  | 1 to 10 nM |  |
| Cc1nc(N[C@H](C)c2cc(N)cc(C(F)(F)F)c2)c2cc(O[C@H]3CCOC3)c3c(c2n1)CCC3 [Compound 109, N—((R)-1-(3-amino-5-(trifluoromethyl)phenyl)ethyl)-2-methyl-6-(((S)-tetrahydrofuran-3-yl)oxy)-8,9-dihydro-7H-cyclopenta[h]quinazolin-4-amine] | 201 to 500 nM | 11 to 20 nM |  |
| Cc1nc(N[C@H](C)c2cc(N)cc(C(F)(F)F)c2)c2cc(O[C@H]3CCOC3)c3oc(C)cc3c2n1 [Compound 111] | 201 to 500 nM | 11 to 20 nM |  |
| Cc1nc(N[C@H](C)c2cc(N)cc(C(F)(F)F)c2)c2cc(O[C@H]3CCOC3)c3c(c2n1)CC(C)(C)O3 [Compound 112, N—((R)-1-(3-amino-5-(trifluoromethyl)phenyl)ethyl)-2,8,8-trimethyl-6-(((S)-tetrahydrofuran-3-yl)oxy)-8,9-dihydrofuro[2,3-h]quinazolin-4-amine] | 1 to 200 nM | 11 to 20 nM |  |
